One may read the IC50 as the concentration that inhibits the measured activity by half.

The text below walks through data of ChEMBL document CHEMBL3792329, “Exploration of 3-methylisoquinoline-4-carbonitriles as protein kinase A inhibitors of Plasmodium falciparum” (Bioorg Med Chem, 2016).

Test [1] can be described thus: Inhibition of asexual blood stage of Plasmodium falciparum 3D7 PKA assessed as inhibition of parasite proliferation after 72 hrs by Malstat assay.
Test [2] in a line: Inhibition of asexual blood stage of chloroquine-resistant Plasmodium falciparum W2mef PKA assessed as inhibition of parasite proliferation after 72 hrs by Malstat assay.

In the case of `CCCCNc1nc(C)c(C(N)=O)c2ccccc12`, the half-maximal inhibitory concentration (IC50) in test [1] is greater than 50 µM.
For the compound `Cc1nc(NC(C)(C)C)c2ccccc2c1C#N`, the IC50 in test [1] worked out at 5.2 µM; in test [2], 4.2 µM.
On the same counts, the results for `CCCCCNc1nc(C)c(C#N)c2ccccc12` are 8.6 µM and 9.6 µM.
In the same order, the values of `Cc1nc(NC2CCCCC2)c2ccccc2c1C#N` are greater than 50 µM and greater than 50 µM.
In the same order, the values of `Cc1nc(NCc2ccccc2)c2ccccc2c1C#N` are greater than 50 µM and greater than 50 µM.
For `CCCCNc1nc(C)c(C#N)c2ccccc12`, the IC50 was 34 µM in test [1] and 33 µM in test [2].
On the same counts, the results for `Cc1nc(NCC(C)C)c2ccccc2c1C#N` are greater than 50 µM and 28 µM.
On the same counts, the results for `CCCCNc1nc(CC)c(C#N)c2ccccc12` are 25 µM and 22 µM.
On the same counts, the results for `CCNc1nc(C)c(C#N)c2ccccc12` are greater than 50 µM and greater than 50 µM.
`CCCNc1nc(C)c(C#N)c2ccccc12`: the IC50 in test [1] and in test [2] was greater than 50 µM in each case.
For `Cc1nc(N)c2ccccc2c1C#N`, the figures for the half-maximal inhibitory concentration (IC50) in test [1] and in test [2] were 34 µM and 36 µM, respectively.
For `CCCCOc1nc(C)c(C#N)c2ccccc12`, the 50% inhibitory concentration (IC50) in test [1] is 36 µM; in test [2], 16 µM.
